This note sets out measurements from patent US20250066338A1, “CERTAIN 3-AZABICYCLO[3.1.0]HEXANES AS GLP-1 RECEPTOR MODULATORS” (AstraZeneca AB, priority 2021, published 2025).

The target in one assay is human GLP-1R receptor (Homo sapiens (Human), UniProt P43220, L260F). The assay can be described thus: CHOK1 GLP-1R cAMP Assay. The assay is classed as cell-based. To be noted: CHO-K1 cell line stably expressing human GLP-1R; HTRF cAMP; agonist activity. How it is done:
A cell line stably expressing the human GLP-1R receptor (NM 002062.5, including the naturally-occurring variant Leu260Phe) in a CHO-K1 (ATCC® CCL-61™) was used for assay.
GLP-1 receptor mediated agonist activity was determined in a cell based assay measuring cyclic adenosine monophosphate (cAMP) levels in cells using Homogeneous Time-Resolved Fluorescence (HTRF) cAMP detection kit (CisBio catalog #62AM4PEC, cAMP Gs Dynamic range kit). The cAMP detection method is based on a competitive immunoassay, in which cAMP produced by the cells and cAMP labeled with the dye d2 compete for binding to a Europium-Cryptate-labeled anti-cAMP antibody. The specific HTRF signal is inversely proportional to the concentration of cAMP.
Compounds were added to individual well in 384 well-assay plates (Greiner #784076) using an Echo (LabCyte) dispenser from 10 mM stocks. Varying concentration of compounds were added to wells, and DMSO was used to normalize each well to a volume of 100 nL. A dose response curve of GLP1(7-36)NH2 (Bachem H-6795) was included in each run. 5 μL of cAMP concentration response standards are applied in specified wells in the assay plates. Cryo-preserved cells are thawed and resuspended in assay buffer pre-heated to 37° C. (20 mM HEPES pH 7.4, lx Hank's Balanced Salt Solution (HBSS, Life Technologies #14065) supplemented with 0.1% (w/v) bovine serum albumin (Sigma, A-7030). Cells were centrifuged at 250*g for 5 min at rt, and resuspended in room tempered assay buffer to a final density of 0.16*10^6 cell/mL, to deliver 800 cells/well. 5 μL of assay buffer with 1 mM 3-isobutyl-1-methylxanthin (IBMX; Sigma cat I-7018) was dispensed per well in assay plates using a multidrop combi (Thermo Scientific) subsequently 5 μL of cell suspension was distributed to relevant wells in the assay using a multidrop dispenser. Assay plates were incubated 20 min at rt.
Detection reagents, Europium-Cryptate-labeled anti-cAMP antibody and cAMP labeled with the dye d2, are diluted in lysis buffer, provided by the manufacturer. 5 μL of each detection reagent is supplemented to each assay well using a multidrop dispenser. Assay plates are incubated in the dark for at least one h. The HTRF signal is measured using the HTRF module (excitation: 337 nm, emission A: 665 nm and emission B: 620 nm) in Pherastar FSX (BMG Labtech).
Raw data were converted to pM cAMP using the cAMP standard curve included in each run. Converted data were further analyzed in Genedata Screener (Genedata) and EC50 determinations were made from agonist dose-response curves analyzed with a curve fitting program using a 4-parameter logistic dose response equation (Equation y=A+((B−A)/1+((C/x)^D))) where A is no stimulation, B is full stimulation, C is the EC50 and D is the Hill slope). The percent effect was determined relative to a saturating concentration of a full GLP-1R agonist (GLP1(7-36)NH2 has 100% effect in this assay setup).

Assay [1] concerns the target GLP-1R in EndoC-βH1 cells (Homo sapiens (Human), UniProt P43220). The experiment in a line: EndoC cAMP Accumulation Assay. Format: cell-based. To be noted: EndoC-βH1 human pancreatic beta cell line; HTRF cAMP accumulation. The text has this:
EndoC cAMP Accumulation Assay
A HTRF cAMP assay (cAMP Gs dynamic kit; CisoBio Cat #62AM4PEJ) was used to identify agonists of GLP-1R in a pancreatic insulinoma cell line (EndoC-βH1). […] EndoC-βH1 cells have detectable GLP-1R messenger ribonucleic acid (mRNA) as detected by quantitative polymerase chain reaction (qPCR). […] The EndoC-βH1 cell line is a valid model of human beta cells and applicable for screenings to identify novel drug target candidates (Mol. Metab., 2018, 8, 144-157). CisBio HTRF cAMP kits are based on a competitive immunoassay using cryptate-labelled anti-cAMP antibody and d2-labeled cAMP. The detection kit is intended for the direct quantitative determination of cAMP. The specific signal (i.e. energy transfer) is inversely proportional to the concentration of cAMP in the standard or sample. Test compounds (10 mM in DMSO) were diluted into assay buffer (HBSS (Sigma #H8264) supplemented with 25 mM HEPES (Gibco #15630, pH 7.4), 0.1% BSA (Sigma #A3059) and 0.5 mM IBMX (Sigma #17018) included fresh on the day of the assay) into 96 well U-bottom plates (Greiner #650201). Diluted compounds were transferred to ECHO source polypropylene plates (Labcyte #P-05525) and dose response curves were dispensed acoustically using ECHO 550 into black shallow-well u-bottom 384-well HTRF Assay Plates (Corning 4514).
Cryovials of EndoC-H1 (supplied at 1×10e^7 cells/vial) were used directly for screening. The cryovials and were removed from N2 (1) and thawed rapidly in a 37° C. water bath. The cells were resuspended in assay buffer and centrifuged at 300 g for 5 min. Cells were resuspended in assay buffer at the appropriate concentration, typically at 12e5 cells per mL (3000 cells per well, dependent on cell batch) and 2.5 μL diluted cells were added to all wells of destination plate by Multidrop combi reagent dispenser (Thermofisher). The plates were incubated at rt for 30 min. The assay was stopped by adding 2.5 μL anti-cAMP cryptate solution to all wells and 2.5 μL cAMP-d2 solution (both diluted 1:20 in lysis buffer) to columns 1-22 by Combi drop. A volume of 2.5 μL cAMP-d2 solution was added to wells E23 to P24 and 2.5 μL lysis buffer added to wells A23 to D24 by multichannel pipette. The plates were incubated at rt for 1 h and read on an Envision plate reader using excitation wavelength of 320 nm and emission of […] and 660 nm.
Raw data from Envision is converted to % DeltaF according to the manufacturer's instructions. Dose response curves are analysed via 4-Parameter Logistical Analysis and assay plate Z′ values obtained. Samples are graphed as percentage (%) activation plots compared to GIP (1-42, Bachem H-5645) with assay window defined by negative control as basal cell cAMP levels and positive control are defined by maximum GIP (82.5 nM) signal. GLP1 (7-36 amide, Bachem H-6795) dose response curve was included on all plates.
(In general: TR-FRET usually uses a lanthanide donor and a delayed reading to cut background.)

Chain of GLP-1R in EndoC-βH1 cells (P43220 24-463): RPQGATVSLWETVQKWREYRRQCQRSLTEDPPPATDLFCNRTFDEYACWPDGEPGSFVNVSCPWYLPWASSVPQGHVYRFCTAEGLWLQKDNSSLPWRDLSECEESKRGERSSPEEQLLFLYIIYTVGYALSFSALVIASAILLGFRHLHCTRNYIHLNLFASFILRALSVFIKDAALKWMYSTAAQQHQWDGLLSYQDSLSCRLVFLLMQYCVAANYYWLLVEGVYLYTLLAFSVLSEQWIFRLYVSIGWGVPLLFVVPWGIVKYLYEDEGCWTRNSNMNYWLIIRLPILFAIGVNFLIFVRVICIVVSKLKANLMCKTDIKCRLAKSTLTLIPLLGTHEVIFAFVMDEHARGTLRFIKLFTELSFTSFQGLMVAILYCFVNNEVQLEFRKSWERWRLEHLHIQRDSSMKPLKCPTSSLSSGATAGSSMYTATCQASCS
Chain of human GLP-1R receptor (P43220 24-463 L260F): as the sequence (P43220 24-463) above, with L237F counted along it

A word on the EC50: it is the concentration giving half of the maximal effect. Regarding “2-(((1R,5S,6S)-6-(6-((4-Cyano-2-fluorobenzyl)oxy)pyridin-2-yl)-3-azabicyclo[3.1.0]hexan-3-yl)methyl)-4-methoxy-1-(((S)-oxetan-2-yl)methyl)-1H-benzo[d]imidazole-6-carboxylic acid [Example 5]”, the EC50 was determined as 240 nM on human GLP-1R receptor and 200 nM in assay [1].

For the compound `COc1cc(C(=O)O)cc2c1nc(CN1C[C@@H]3[C@H](C1)[C@H]3c1nc(OCc3ccc(C#N)cc3F)ccc1F)n2C[C@@H]1CCO1` [Example 1, 2-(((1R,5S,6S)-6-(6-((4-Cyano-2-fluorobenzyl)oxy)-3-fluoropyridin-2-yl)-3-azabicyclo[3.1.0]hexan-3-yl)methyl)-4-methoxy-1-(((S)-oxetan-2-yl)methyl)-1H-benzo[d]imidazole-6-carboxylic acid], the EC50 was 7.7 nM on human GLP-1R receptor and 5 nM in assay [1].

In the case of `N#Cc1ccc(COc2ccc(F)c([C@H]3[C@@H]4CN(Cc5nc6ccc(C(=O)O)cc6n5C[C@@H]5CCO5)C[C@@H]43)n2)c(F)c1` [Example 2, 2-(((1R,5S,6S)-6-(6-((4-Cyano-2-fluorobenzyl)oxy)-3-fluoropyridin-2-yl)-3-azabicyclo[3.1.0]hexan-3-yl)methyl)-1-(((S)-oxetan-2-yl)methyl)-1H-benzo[d]imidazole-6-carboxylic acid], the EC50 on human GLP-1R receptor came to 30 nM; in assay [1], 26 nM.

Turning to `N#Cc1ccc(COc2cccc([C@H]3[C@@H]4CN(Cc5nc6ccc(C(=O)O)cc6n5C[C@@H]5CCO5)C[C@@H]43)n2)c(F)c1` [Example 3, 2-(((1R,5S,6S)-6-(6-((4-Cyano-2-fluorobenzyl)oxy)pyridin-2-yl)-3-azabicyclo[3.1.0]hexan-3-yl)methyl)-1-(((S)-oxetan-2-yl)methyl)-1H-benzo[d]imidazole-6-carboxylic acid], the EC50 at human GLP-1R receptor was 75 nM; in assay [1], 21 nM.

As for `COc1cc(C(=O)O)cc2c1nc(CN1C[C@@H]3[C@H](C1)[C@H]3c1cccc(OCc3ccc(C#N)cc3F)n1)n2C[C@@H]1CCO1` [Example 4, 2-(((1R,5S,6S)-6-(6-((4-Cyano-2-fluorobenzyl)oxy)pyridin-2-yl)-3-azabicyclo[3.1.0]hexan-3-yl)methyl)-4-methoxy-1-(((S)-oxetan-2-yl)methyl)-1H-benzo[d]imidazole-6-carboxylic acid], the EC50 was 12 nM at human GLP-1R receptor and 5.8 nM in assay [1].

With `N#Cc1ccc(COc2cccc([C@H]3[C@@H]4CN(Cc5nc6ccc(C(=O)O)cc6n5C[C@@H]5CCCO5)C[C@@H]43)n2)c(F)c1` [Example 6, 2-(((1R,5S,6S)-6-(6-((4-Cyano-2-fluorobenzyl)oxy)pyridin-2-yl)-3-azabicyclo[3.1.0]hexan-3-yl)methyl)-1-(((S)-tetrahydrofuran-2-yl)methyl)-1H-benzo[d]imidazole-6-carboxylic acid], the EC50 in assay [1] was 290 nM.

In the case of `CCn1cncc1Cn1c(CN2C[C@@H]3[C@H](C2)[C@H]3c2nc(OCc3ccc(C#N)cc3F)ccc2F)nc2c(OC)cc(C(=O)O)cc21` [Example 7, 2-(((1R,5S,6r)-6-(6-((4-Cyano-2-fluorobenzyl)oxy)-3-fluoropyridin-2-yl)-3-azabicyclo[3.1.0]hexan-3-yl)methyl)-1-((1-ethyl-1H-imidazol-5-yl)methyl)-4-methoxy-1H-benzo[d]imidazole-6-carboxylic acid], the results for the EC50 (at human GLP-1R receptor; in assay [1]) were 17 nM and 38 nM, respectively.

Regarding `N#Cc1ccc(COc2cccc([C@H]3[C@@H]4CN(Cc5nc6c(Cl)cc(C(=O)O)cc6n5C[C@@H]5CCO5)C[C@@H]43)n2)c(F)c1` [Example 8, 4-Chloro-2-(((1R,5S,6S)-6-(6-((4-cyano-2-fluorobenzyl)oxy)pyridin-2-yl)-3-azabicyclo[3.1.0]hexan-3-yl)methyl)-1-(((S)-oxetan-2-yl)methyl)-1H-benzo[d]imidazole-6-carboxylic acid], the EC50 at human GLP-1R receptor is 20 nM; in assay [1] it was 10 nM.

Take `Cc1cc(C(=O)O)cc2c1nc(CN1C[C@@H]3[C@H](C1)[C@H]3c1cccc(OCc3ccc(C#N)cc3F)n1)n2C[C@@H]1CCO1` [Example 9, 2-(((1R,5S,6S)-6-(6-((4-Cyano-2-fluorobenzyl)oxy)pyridin-2-yl)-3-azabicyclo[3.1.0]hexan-3-yl)methyl)-4-methyl-1-(((S)-oxetan-2-yl)methyl)-1H-benzo[d]imidazole-6-carboxylic acid]: the EC50 at human GLP-1R receptor came out at 78 nM; in assay [1], 56 nM.

On to `CCn1cncc1Cn1c(CN2C[C@@H]3[C@H](C2)[C@H]3c2cccc(OCc3ccc(C#N)cc3F)n2)nc2ccc(C(=O)O)cc21` [Example 10, 2-(((1R,5S,6r)-6-(6-((4-Cyano-2-fluorobenzyl)oxy)pyridin-2-yl)-3-azabicyclo[3.1.0]hexan-3-yl)methyl)-1-((1-ethyl-1H-imidazol-5-yl)methyl)-1H-benzo[d]imidazole-6-carboxylic acid], for which the EC50 on human GLP-1R receptor worked out at 42 nM; in assay [1], 88 nM.

As to `COc1cc(C(=O)O)cc2c1nc(CN1C[C@@H]3[C@H](C1)[C@H]3c1cccc(OCc3ccc(Cl)cc3F)n1)n2C[C@@H]1CCO1` [Example 11, 2-(((1R,5S,6S)-6-(6-((4-Chloro-2-fluorobenzyl)oxy)pyridin-2-yl)-3-azabicyclo[3.1.0]hexan-3-yl)methyl)-4-methoxy-1-(((S)-oxetan-2-yl)methyl)-1H-benzo[d]imidazole-6-carboxylic acid], the EC50 at human GLP-1R receptor is 17 nM; in assay [1] it was 6.5 nM.

As for `CCn1cncc1Cn1c(CN2C[C@@H]3[C@H](C2)[C@H]3c2cccc(OCc3ccc(Cl)cc3F)n2)nc2ccc(C(=O)O)cc21` [Example 12, 2-(((1R,5S,6r)-6-(6-((4-Chloro-2-fluorobenzyl)oxy)pyridin-2-yl)-3-azabicyclo[3.1.0]hexan-3-yl)methyl)-1-((1-ethyl-1H-imidazol-5-yl)methyl)-1H-benzo[d]imidazole-6-carboxylic acid], the results for the EC50 (at human GLP-1R receptor; in assay [1]) were 97 nM and 150 nM, respectively.
